# Experimental data: patent US20100087458A1, “METHOD OF TREATING MELANOMA” (Myriad Pharmaceuticals, Inc., priority 2007, published 2010)
# Entries after “also recorded” stand apart in the source; their conditions may differ. Where a name gives a salt, the structure may show the parent alone.
# System: Subjects with refractory solid tumors
# Test: Phase I clinical trial, open-label, dose-escalating, multiple-dose, weekly intravenous administration (safety, tolerability)
# Assay type: in vivo
# Conditions: human subjects
# Experimental: An open-label, dose-escalating, multiple-dose study to define the safety, tolerability and phamacokinetics of weekly intravenous administration of (4-Methoxy-phenyl)-methyl-(2-methyl-quinazolin-4-yl)-amine hydrochloride was performed. A dosing schedule (each 4 week cycle) was performed for (4-Methoxy-phenyl)-methyl-(2-methyl-quinazolin-4-yl)-amine hydrochloride weekly for 3 weeks with no infusion on the fourth week of each cycle. Subjects with refractory solid tumors were enrolled in cohorts of 3. During Cycle 1, subjects were hospitalized during each infusion of (4-Methoxy-phenyl)-methyl-(2-methyl-quinazolin-4-yl)-amine hydrochloride and remained for observation and safety evaluation for approximately 24 hours following the end of the infusion. All subject had continuous telemetry for 2 hours prior to infusion, for 1-2 hour infusion and for 3 hours after the end of the infusion. Any clinically significant electrocardiographic (ECG) wave form abnormality was recorded and prolongation of the monitoring period extended at the discretion of the principal investigator.
# Electrocardiograms were obtained prior to starting the infusion and within 30 minutes of the end of infusion for each infusion of the first cycle. Electrocardiograms on Day 1 were obtained in triplicate 5 minutes apart.
# Neurocognitive assessments were made by administration of the Mini-Mental State Examination (MMSE), the Hopkins Verbal Learning and timed Grooved Pegboard tests before administration of the intravenous infusion and approximately 24 hours of the infusion at each weekly administration of the first cycle.
# On days 1, 8, and 15 of each cycle, vital signs were obtained prior to the first dose, at 15, 30, and 60 minutes after the initiation of the infusion, and at 0.5, 1, 1.5, 2, and 4 hours after the end of the intravenous infusion. Vital signs at all time points beyond the start of the intravenous infusion included heart rate, blood pressure and respirations. Temperature was measured at the end of the infusion and 4 hours later.
# Individual subjects were allowed to continue on repeated weekly ×3 administrations every 28 days with no dose increase provided there was no unacceptable toxicity or disease progression.
# Tumor response was evaluated by response evaluation criteria in solid tumors (RECIST) criteria. To prevent sever hypersensitivity reactions due to Cremophor® EL, subjects were premedicated with oral dexamethasone (20 mg) administered approximately 12 and 6 hours before the intravenous infusion with (4-Methoxy-phenyl)-methyl-(2-methyl-quinazolin-4-yl)-amine hydrochloride, diphenhydramine (50 mg) or its equivalent administered intravenously 30-60 minutes before (4-Methoxy-phenyl)-methyl-(2-methyl-quinazolin-4-yl)-amine hydrochloride, and cimetidine (300 mg) or ranitidine (50 mg) administered intravenously 30-60 minutes before (4-Methoxy-phenyl)-methyl-(2-methyl-quinazolin-4-yl)-amine hydrochloride.
# [1] = weekly i.v. infusion for 3 of 4 weeks, 0.3-3.3 mg/m^2
# [2] = weekly i.v. infusion, 0.3-3.3 mg/m^2
smiles,measurement,setting,value
COc1ccc(N(C)c2nc(C)nc3ccccc23)cc1 [(4-Methoxy-phenyl)-methyl-(2-methyl-quinazolin-4-yl)-amine hydrochloride],"effects on cardiac conduction (PR, QRS or QTc)","ECG before and within 30 minutes of end of infusion, 0.3-3.3 mg/m^2",no significant effects on cardiac conduction
same,overall safety and tolerability,"weekly i.v. administration, various dosages, hydrochloride",safe and well tolerated in human subjects at various dosages; also recorded: safe and tolerable
same,dose limiting toxicity,[1],"vascular in nature, manifested by an acute coronary syndrome"
same,intratumor bleeding,[1],incidences of intratumor bleeding
same,peripheral cytotoxicity,[1],no evidence of cytotoxity peripherally at the administered doses
same,bradycardia,[2],occasional episodes of bradycardia
same,systolic blood pressure,[2],dose-related increase in systolic blood pressure
